# Reference: patent publication US20250099382A1, “Colloidal suspension of nutraceutical ingredients to treat traumatic brain injury” (priority 2023, published 2025)
# Key:
# [1] = test system: rat; test: LD50 reported by PubChem.gov, rat; details: for human equivalent of LD50: LD50 divided by 6.2 (rat), times 65 kilograms
# [2] = test system: rat; details: PubChem.gov, cited from earlier work; for LD50: rat, route not stated
# [3] = test system: mice; test: LD50 reported by PubChem.gov, human conversion with the mouse factor 12.3; details: LD50 divided by 12.3, times 65 kilograms
# Text: Much of the research for toxicity and efficacy studies is preclinical, which necessitates a conversion of preclinical data to human equivalent data for interpretation of implications of preclinical data to clinical studies. […] For conversion of preclinical data from mice to human, divide the mg/kg dosage by 12.3. One would then multiply the result by an approximated average weight in kilograms for human clinical subjects to establish a preliminary clinical dosage. For example, if the preclinical dosage indicating drug efficacy were 100 mg/kg, this dosage would be divided by 12.3 to get 8.13 mg/kg, which would then be multiplied by an average weight in kilograms designated for the clinical study. For an average clinical subject weight of 65 kilograms, the original 100 mg/kg preclinical dosage would translate to 528 mg, which would be the preliminary dosage for clinical studies. For conversion of preclinical data from rat to human, the animal dosage would be divided by 6.2, then multiplied by the average subject weight in kilograms for the clinical study.
# To convert this preclinical data to human equivalent data, 2.2 grams divided by 12.3 is 179 mg, times 65 kilograms for a human subject weighing 65 kg is approximately 11.6 grams.
# For human equivalency dosage, 100 mg/kg divided by 12.3 is 8.13 mg/kg, times 65 for a 65-kilogram clinical subject is 528 mg/kg. […]
# [4] = test system: mice; details: PubChem.gov, cited from earlier work
# [5] = test system: weight drop contusion TBI; details: 100 mg/kg to mice after weight drop contusion TBI; cited from earlier work
# [6] = test system: platelets; details: cited from earlier work
# [7] = test system: TBI; details: 100 mg/kg, rats; cited from earlier work
# [8] = test system: human lymphocytes; details: human lymphocytes in culture; cited from earlier work
# [9] = test system: rats; details: up to 5 grams per kilogram for 60 days; cited from earlier work
# [10] = test system: mice; details: up to 5 grams per kilogram for 60 days; cited from earlier work
compound,measurement,setting,value
"Nc1ncnc2c1ncn2[C@@H]1O[C@H](COP(=O)([O-])OP(=O)([O-])OP(=O)([O-])[O-])[C@@H](O)[C@H]1O.[Mg+2].[Mg+2] [ATP, Adenosine triphosphate magnesium]",human equivalent of LD50,[1],> 21 grams
same,LD50,[2],greater than 2 grams per kilogram
"N[C@@H](CCC(=O)N[C@@H](CS)C(=O)NCC(=O)O)C(=O)O [GSH, Glutathione]",human equivalent of intravenous LD50,[3],approximately 11.6 grams
same,"LD50, intravenous",[4]; intravenous,2.2 grams per kilogram of animal weight
"CC(=O)O[C@H](CC(=O)[O-])C[N+](C)(C)C [acetyl L-carnitine, Acetyl L-carnitine]",human equivalent dosage of intravenous LD50,"[1]; LD50 divided by 6.2, times 65 for a 65-kilogram human patient",13.2 grams
same,"LD50, intravenous","[2]; intravenous, rat species","1,265 mg/kg"
"COc1cc(/C=C/C(=O)CC(=O)/C=C/c2ccc(O)c(OC)c2)ccc1O [curcumin, Curcumin]",recovery after TBI,[5],Major improvements in recovery were noted
same,production of thromboxane A2 by platelets,[6],reduced the production of thromboxane A2 by platelets
same,human equivalent of LD50,[3],approximately 10.6 grams
same,LD50,[4]; route not stated,greater than 2 grams per kilogram of animal weight
"Oc1ccc(C=Cc2cc(O)cc(O)c2)cc1 [resveratrol, 3,5,4′-Trihydroxystilbene]",secondary injury from TBI,[7],significantly attenuated secondary injury from TBI
same,genetic damage induced by permethrin,[8],diminishes genetic damage induced by permethrin
NCCS(=O)(=O)O [taurine],human equivalent of LD50,[1],74 grams
same,LD50,[2],greater than 7 grams per kilogram
Fulvic acid,toxicity or genotoxicity,[9],No toxicity or genotoxicity was found
same,toxicity or genotoxicity,[10],No toxicity or genotoxicity was found
